# According to patent publication US4027039A (priority 1975, dated 1977):
# Where “and” joins values, the source holds several entries; their conditions need not be identical. Equal values may be shown once. Read-outs that look alike come from different tables or passages of the source.
# What was measured:
# Herpes virus [1] = assay: Herpes virus in chicken eggs, single dose 24 hours pre-infection; type: in vivo, chick embryo
# Influenza PR 8 virus [2] = assay: Influenza PR 8 in mice, oral; schedule by table; late read day 6 (Table 37), 7 (33, 36), 8 (32, 35, 47), 10 (38); control fraction 18/20 (Table 32), 19/20 (Table 35), else 100%; type: in vivo, mouse
# Influenza PR 8 virus [3] = assay: Influenza PR 8 in mice, subcutaneous; late read day 6 (Table 37), 8 (Table 47); type: in vivo, mouse
# Influenza PR 8 virus [4] = assay: Influenza PR 8 in mice, intravenous (Table 31); type: in vivo, mouse; conditions: total dose .2 μg
# Influenza PR 8 virus [5] = assay: Influenza PR 8 in mice, drug in drinking water (Table 34); type: in vivo, mouse
# Columbia SK Polio virus = type: in vivo, mouse
# Vaccinia IHD virus = type: in vivo, mouse
# Vaccinia virus = type: in vivo, rabbit; conditions: rabbit, in vivo; thiosemicarbazone
# Herpes virus [6] = tested on: Herpes virus
# viral infections = assay: Antiviral screening in animals, general statements; conditions: mouse, in vivo
# [7] = total dose .000005 μg, thiosemicarbazone
# [8] = total dose .00005 μg, listed as 2-butanone thiosemicarbazone
# [9] = total dose .00005 μg, thiosemicarbazone
smiles,measurement,setting,value
"CCC(C)=NNC(N)=S [2-Butanone, thiosemicarbazone, 2-butanone, thiosemicarbazone]",Deaths on day 1,Herpes virus [1]; 2 μg,1
same,Deaths on day 2,Herpes virus [1]; 2 μg,5
same,Deaths on day 3,Herpes virus [1]; 2 μg,3
same,No. dying 5-22 day,Herpes virus [1]; 2 μg,2
same,No. hatched,Herpes virus [1]; 2 μg,1
same,No. living longer than controls,Herpes virus [1]; 2 μg,3
same,"Total deaths, 4th day",Herpes virus [1]; 2 μg,9
same,Deaths on day 2,Herpes virus [1]; 20 μg,5
same,Deaths on day 3,Herpes virus [1]; 20 μg,1
same,Deaths on day 4,Herpes virus [1]; 20 μg,2
same,No. dying 5-22 day,Herpes virus [1]; 20 μg,1
same,No. living longer than controls,Herpes virus [1]; 20 μg,4
same,"Total deaths, 4th day",Herpes virus [1]; 20 μg,8
same,Deaths on day 1,Herpes virus [1]; .00005 μg,2
same,Deaths on day 2,Herpes virus [1]; .00005 μg,4
same,Deaths on day 3,Herpes virus [1]; .00005 μg,5
same,No. dying 5-22 day,Herpes virus [1]; .00005 μg,0
same,No. hatched,Herpes virus [1]; .00005 μg,1
same,No. living longer than controls,Herpes virus [1]; .00005 μg,1
same,"Total deaths, 4th day",Herpes virus [1]; .00005 μg,11
same,Deaths on day 1,Herpes virus [1]; .0005 μg,1
same,Deaths on day 2,Herpes virus [1]; .0005 μg,5
same,Deaths on day 3,Herpes virus [1]; .0005 μg,3
same,Deaths on day 4,Herpes virus [1]; .0005 μg,1
same,No. dying 5-22 day,Herpes virus [1]; .0005 μg,0
same,No. hatched,Herpes virus [1]; .0005 μg,1
same,No. living longer than controls,Herpes virus [1]; .0005 μg,2
same,"Total deaths, 4th day",Herpes virus [1]; .0005 μg,10
same,Deaths on day 1,Herpes virus [1]; .005 μg,2
same,Deaths on day 2,Herpes virus [1]; .005 μg,4
same,Deaths on day 3,Herpes virus [1]; .005 μg,2
same,Deaths on day 4,Herpes virus [1]; .005 μg,3
same,No. dying 5-22 day,Herpes virus [1]; .005 μg,0
same,No. living longer than controls,Herpes virus [1]; .005 μg,1
same,"Total deaths, 4th day",Herpes virus [1]; .005 μg,11
same,Deaths on day 1,Herpes virus [1]; .05 μg,2
same,Deaths on day 2,Herpes virus [1]; .05 μg,6
same,Deaths on day 3,Herpes virus [1]; .05 μg,3
same,No. dying 5-22 day,Herpes virus [1]; .05 μg,1
same,No. living longer than controls,Herpes virus [1]; .05 μg,1
same,"Total deaths, 4th day",Herpes virus [1]; .05 μg,11
same,Deaths on day 1,Herpes virus [1]; .5 μg,1
same,Deaths on day 2,Herpes virus [1]; .5 μg,3
same,Deaths on day 3,Herpes virus [1]; .5 μg,6
same,Deaths on day 4,Herpes virus [1]; .5 μg,2
same,No. dying 5-22 day,Herpes virus [1]; .5 μg,0
same,No. living longer than controls,Herpes virus [1]; .5 μg,0
same,"Total deaths, 4th day",Herpes virus [1]; .5 μg,12
same,Total no. hatched,Herpes virus [1]; all doses,5
same,Total no. living longer than controls,Herpes virus [1]; all doses,12
same,No. animals surviving after 6-10 days,Influenza PR 8 virus [2]; total dose .000005 μg,6
same,Survivors,Influenza PR 8 virus [2]; total dose .000005 μg,0
same,No. animals surviving after 6-10 days,Influenza PR 8 virus [2]; [7],4
same,No. animals surviving when 100% (or given fraction) of controls are dead,Influenza PR 8 virus [2]; [7],2
same,Survivors,Influenza PR 8 virus [2]; [7],1
same,Survivors,Influenza PR 8 virus [2]; total dose .00005 μg,4
same,No. animals surviving after 6-10 days,Influenza PR 8 virus [2]; [8],5
same,Survivors,Influenza PR 8 virus [2]; [8],2
same,No. animals surviving after 6-10 days,Influenza PR 8 virus [2]; [9],8 and 4
same,No. animals surviving when 100% (or given fraction) of controls are dead,Influenza PR 8 virus [2]; [9],4
same,No. animals surviving after 6-10 days,Influenza PR 8 virus [2]; total dose .0005 μg,2
same,No. animals surviving when 100% (or given fraction) of controls are dead,Influenza PR 8 virus [2]; total dose .0005 μg,1
same,Survivors,Influenza PR 8 virus [2]; total dose .0005 μg,1
same,No. animals surviving after 6-10 days,Influenza PR 8 virus [2]; total dose .005 μg,2
same,No. animals surviving when 100% (or given fraction) of controls are dead,Influenza PR 8 virus [2]; total dose .005 μg,1
same,Survivors,Influenza PR 8 virus [2]; total dose .005 μg,1
same,Survivors,"Influenza PR 8 virus [2]; total dose .005 μg, thiosemicarbazone",0
same,No. animals surviving after 6-8 days,Influenza PR 8 virus [3]; total dose .000005 μg,2
same,Survivors,Influenza PR 8 virus [3]; total dose .000005 μg,0
same,Survivors,Influenza PR 8 virus [3]; total dose .00005 μg,0
same,No. animals surviving after 6-8 days,Influenza PR 8 virus [3]; total dose .0005 μg,1
same,Survivors,Influenza PR 8 virus [3]; total dose .0005 μg,1
same,Survivors,Influenza PR 8 virus [3]; total dose .005 μg,0
same,No. animals surviving when 18/20 of controls are dead,Influenza PR 8 virus [4],2
same,Survivors,Influenza PR 8 virus [4],2
same,Survivors,"Influenza PR 8 virus [5]; 0.5 Mg/ml in water, 24 h pre and 24 h post",1
same,Survivors,"Influenza PR 8 virus [5]; 10 Mg/ml in water, 24 h pre and 24 h post",2
same,Survivors,"Influenza PR 8 virus [5]; 24 h post-infection only, first of two printed columns",0
same,No. animals surviving after 5 days,Columbia SK Polio virus; total dose 3 ng,7
same,Survivors,Columbia SK Polio virus; total dose 3 ng,0
same,No. animals surviving after 5 days,Columbia SK Polio virus; total dose 30 ng,8
same,Survivors,Columbia SK Polio virus; total dose 30 ng,0
same,No. animals surviving after 5 days,Columbia SK Polio virus; total dose 300 ng,6
same,Survivors,Columbia SK Polio virus; total dose 300 ng,1
same,Statistical Significance of Tail Lesions,"Vaccinia IHD virus; 10 ng, day 5",< .05
same,Statistical Significance of Tail Lesions,"Vaccinia IHD virus; 10 ng, day 6",< .01
same,Statistical Significance of Tail Lesions,"Vaccinia IHD virus; 10 ng, day 7",< .05
same,Statistical Significance of Tail Lesions,"Vaccinia IHD virus; 10 ng, day 10",< .01
same,Statistical Significance of Tail Lesions,"Vaccinia IHD virus; 10 ng, day 11",< .01
same,Statistical Significance of Tail Lesions,"Vaccinia IHD virus; 10 ng, day 12",< .01
same,Statistical Significance of Tail Lesions,"Vaccinia IHD virus; 10 ng, day 14",< .01
same,Statistical Significance of Tail Lesions,"Vaccinia IHD virus; 10 ng, day 17",< .01
same,Statistical Significance of Tail Lesions,"Vaccinia IHD virus; 10 ng, day 21",< .01
same,Statistical Significance of Tail Lesions,"Vaccinia IHD virus; 1 μg, day 5",< .01
same,Statistical Significance of Tail Lesions,"Vaccinia IHD virus; 1 μg, day 6",< .01
same,Statistical Significance of Tail Lesions,"Vaccinia IHD virus; 1 μg, day 7",< .05
same,Statistical Significance of Tail Lesions,"Vaccinia IHD virus; 1 μg, day 8",< .01
same,Statistical Significance of Tail Lesions,"Vaccinia IHD virus; 1 μg, day 10",< .01
same,Statistical Significance of Tail Lesions,"Vaccinia IHD virus; 1 μg, day 11",< .01
same,Statistical Significance of Tail Lesions,"Vaccinia IHD virus; 1 μg, day 12",< .01
same,Statistical Significance of Tail Lesions,"Vaccinia IHD virus; 1 μg, day 14",< .01
same,Statistical Significance of Tail Lesions,"Vaccinia IHD virus; 1 μg, day 17",< .01
same,Statistical Significance of Tail Lesions,"Vaccinia IHD virus; 1 μg, day 21",< .01
same,Statistical Significance of Tail Lesions,"Vaccinia IHD virus; 10 [μg], day 6",< .01
same,Statistical Significance of Tail Lesions,"Vaccinia IHD virus; 10 [μg], day 7",< .05
same,Statistical Significance of Tail Lesions,"Vaccinia IHD virus; 10 [μg], day 8",< .05
same,Statistical Significance of Tail Lesions,"Vaccinia IHD virus; 10 [μg], day 10",< .01
same,Statistical Significance of Tail Lesions,"Vaccinia IHD virus; 10 [μg], day 11",< .05
same,Statistical Significance of Tail Lesions,"Vaccinia IHD virus; 10 [μg], day 12",< .05
same,Statistical Significance of Tail Lesions,"Vaccinia IHD virus; 10 [μg], day 14",< .05
same,Statistical Significance of Tail Lesions,"Vaccinia IHD virus; 10 [μg], day 17",< .01
same,Statistical Significance of Tail Lesions,"Vaccinia IHD virus; 10 [μg], day 21",< .01
same,Statistical Significance of Tail Lesions,"Vaccinia IHD virus; 100 [ng], day 5",< .05
same,Statistical Significance of Tail Lesions,"Vaccinia IHD virus; 100 [ng], day 6",< .01
same,Statistical Significance of Tail Lesions,"Vaccinia IHD virus; 100 [ng], day 7",< .01
same,Statistical Significance of Tail Lesions,"Vaccinia IHD virus; 100 [ng], day 8",< .01
same,Statistical Significance of Tail Lesions,"Vaccinia IHD virus; 100 [ng], day 10",< .01
same,Statistical Significance of Tail Lesions,"Vaccinia IHD virus; 100 [ng], day 11",< .01
same,Statistical Significance of Tail Lesions,"Vaccinia IHD virus; 100 [ng], day 12",< .01
same,Statistical Significance of Tail Lesions,"Vaccinia IHD virus; 100 [ng], day 14",< .01
same,Statistical Significance of Tail Lesions,"Vaccinia IHD virus; 100 [ng], day 17",< .01
same,Statistical Significance of Tail Lesions,"Vaccinia IHD virus; 100 [ng], day 21",< .01
same,activity in words,"Vaccinia IHD virus; mouse, in vivo",most active of the compounds tested
same,effect on pox formation,Vaccinia virus,variable
same,Survivors,"Herpes virus [6]; mouse, in vivo",2
same,No. animals surviving after 6-9 days,Herpes virus [6]; total dose .000005 μg,1
same,No. animals surviving when 100% (or given fraction) of controls are dead,Herpes virus [6]; total dose .000005 μg,0
same,Survivors,Herpes virus [6]; total dose .000005 μg,0
same,No. animals surviving after 6-9 days,Herpes virus [6]; total dose .00005 μg,8
same,No. animals surviving when 100% (or given fraction) of controls are dead,Herpes virus [6]; total dose .00005 μg,4
same,No. animals surviving after 6-9 days,Herpes virus [6]; total dose .0005 μg,6
same,No. animals surviving when 100% (or given fraction) of controls are dead,Herpes virus [6]; total dose .0005 μg,5
same,Survivors,Herpes virus [6]; total dose .0005 μg,4
same,No. animals surviving after 6-9 days,Herpes virus [6]; total dose .005 μg,4
same,No. animals surviving when 100% (or given fraction) of controls are dead,Herpes virus [6]; total dose .05 μg,0
same,Survivors,Herpes virus [6]; total dose .05 μg,0
same,activity in words,viral infections,one of the most active compounds
